Source: PubChem BioAssay AID1963834 (Molecular Pharmacology Branch, DTP, NCI, 2024)
Several values for one entry are separate records, joined by “and”; a condition that tells them apart may be missing. Equal values may be shown once.

Tested on: 873145-292-R-J1-PDC complex spheroid viability
Experiment: Anticancer human tumor 873145-292-R-J1-PDC patient-derived renal clear cell carcinoma cell line growth inhibition [POLQ]
Settings: for viability, T/C: stronger effect = lower value; active means viability on the fitted dose curve at most 10% of control; inactive means the rest
Procedure: Multicellular complex tumor spheroid response to Polymerase (POL) inhibitors (novobiocin, ART-558, RP6685) in combination with a variety of drugs and investigational agents in selected tumor cell lines
The POL inhibitors (novobiocin, ART-558, and RP6685) were evaluated both individually and in combination with standard of care and investigational anticancer small molecules within a complex spheroid model of solid tumors. . Complex spheroids include a stromal component modeled by human endothelial cells (HUVEC) and fibroblasts modeled by human mesenchymal stem cells (MSCs). The concentration ranges selected for each drug and investigational agent were based upon clinically achievable concentrations if the clinical Cmax of the agent was known.
Compounds. The drugs and investigational agents: novobiocin (NSC847541), ART-558 (NSC835418), RP-6685 (NSC848927), peposertib (NSC802822), ceralasertib (NSC780249), elimusertib (NSC800525), camonsertib (NSC841442), AZD-1390 (NSC803789), olaparib (NSC753686), talazoparib (NSC767125), rucaparib (NSC756644), sotorasib (NSC818433), MRTX-1133 (NSC836407), SN-38 (NSC673596), topotecan (NSC609699), epotoside (NSC141540), doxorubicin (NSC123127), gemcitabine (NSC613327), 5-fluorouracil (NSC19893), paclitaxel (NSC125973), vemurafenib (NSC761431), MSA-2 (NSC828583), SN-011 (NSC837082), adavosertib (NSC754352), prexasertib (NSC758257), carboplatin (NSC241240) and oxaliplatin (NSC266046), were obtained from the National Cancer Institute (NCI) Developmental Therapeutics Program Chemical Repository (21). The FDA-approved anticancer drug set is available from the Developmental Therapeutics Program at https://dtp.cancer.gov/organization/dscb/obtaining/. […] The stock solutions were prepared in dimethyl sulfoxide (DMSO, Sigma-Aldrich, St. Louis, MO, cat. D2650), except for the platinum compounds which were prepared in saline (Quality Biological, Gaithersburg, MD, cat. 114-055-101), at 800-fold the tested concentration and stored at -70 degrees C prior to their use. All drugs and investigational agents were tested over a range starting from a high concentration at or near the clinical Cmax and decreasing in half-log increments. If the clinical Cmax for an agent had not been determined, the highest concentration tested was 10 microM, except for SN-38, which was tested at a high concentration of 1 microM.
Cell Culture. All cells were maintained in an incubator at 37 degrees C and 5% CO2 with 95% humidity. The PDC lines were cultured according to standard operating procedures established by the NCI PDMR (https://pdmr.cancer.gov). Table 3 of the manuscript, lists the cell lines along with the number of the three cell types plated to form the mct-spheroids and media for tumor cell growth. After thawing, all PDC lines, except 997537-175-T-J1-PDC and 415267-285-R-J2-PDC, were cultured in Matrigel-coated flasks prepared with a working solution of 1X Ham's F-12 nutrient mix, without supplementation (Thermo Fisher Scientific, cat. 11765054), 100 U/mL penicillin-streptomycin (Thermo Fisher Scientific, cat. 15140122), and 2.5% Matrigel (Corning Inc., Corning, NY, cat. 354248) for the first three passages. The two PDC lines 997537-175-T-J1-PDC and 415267-285-R-J2-PDC were cultured on uncoated flasks. The 857933-349-R-J2-PDC line was cultured in 6C/Colon 1B media containing advanced DMEM/F-12 (Thermo Fisher Scientific, cat. 12634028), 10 mM HEPES (Thermo Fisher Scientific, cat. 15630080), 1X GlutaMAX supplement (Thermo Fisher Scientific, cat. 35050061), 0.1 mg/mL primocin (InvivoGen, San Diego, CA, cat. ant-pm-2), 10% defined fetal bovine serum, heat inactivated (HyClone Laboratories Inc., Logan, UT, cat. SH30070.03HI), 50% L-WRN conditioned media (ATCC, cat. CRL-3276), 1.25 mM N-Acetyl-L-cysteine (Sigma-Aldrich, cat. A9165), 10 mM nicotinamide (Sigma-Aldrich, cat. N0636), 1X B-27 supplement (Thermo Fisher Scientific, cat. 17504044), 1X N-2 supplement (Thermo Fisher Scientific, cat. […]
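Further: spheroids exposed to compounds for 7 days before viability readout.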
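Wherever viability, T/C is given: luminescence signal used as surrogate for viable cell content.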

C=CCn1c(=O)c2cnc(Nc3ccc(N4CCN(C)CC4)cc3)nc2n1-c1cccc(C(C)(C)O)n1
> 1000 nM: IC50 (curve of compound)
inactive: viability, T/C (compound 0.00316 µM) 106% and 97.8% and 112% | viability, T/C (compound 0.01 µM) 95.9% and 105% and 90.5% | viability, T/C (compound 0.0316 µM) 104% and 92.5% and 97.3% | viability, T/C (compound 0.1 µM) 101% and 97.8% and 97.9% | viability, T/C (compound 0.316 µM) 76.4% and 84.9% and 85.7% | viability, T/C (compound 1 µM) 74.7% and 77.3% and 80%

Nc1ccc(C#CCN(C(=O)Cc2ncc(C(F)(F)F)cc2C(F)(F)F)c2ccc(F)cc2)nn1
inactive: viability, T/C (compound 0.1 µM) 101% [middle of 13 runs] | viability, T/C (compound 0.316 µM) 101% [middle of 13 runs] | viability, T/C (compound 1 µM) 95.2% [middle of 13 runs] | viability, T/C (compound 3.16 µM) 103% [middle of 13 runs] | viability, T/C (compound 10 µM) 108% [middle of 13 runs]
> 10000 nM: IC50 (compound alone, run of 01/19/2024)

COc1cccc(OCCCN)c1-c1cc(Nc2cnc(C#N)cn2)n[nH]1 + Cc1cccc(N(C)C(=O)C2C(O)CCN2c2nc(C)cc(C(F)(F)F)c2C#N)c1
inactive: viability, T/C (second compound 0.0316 µM, first compound 0.00316 µM) 102% | viability, T/C (second compound 0.0316 µM, first compound 0.01 µM) 111% | viability, T/C (second compound 0.0316 µM, first compound 0.0316 µM) 77.8% | viability, T/C (second compound 0.0316 µM, first compound 0.1 µM) 69.7% | viability, T/C (second compound 0.0316 µM, first compound 0.316 µM) 74.8% | viability, T/C (second compound 0.0316 µM, first compound 1 µM) 78.3% | viability, T/C (second compound 0.1 µM, first compound 0.00316 µM) 104% | viability, T/C (second compound 0.1 µM, first compound 0.01 µM) 103% | viability, T/C (second compound 0.1 µM, first compound 0.0316 µM) 65.9% | viability, T/C (second compound 0.1 µM, first compound 0.1 µM) 73.7% | viability, T/C (second compound 0.1 µM, first compound 0.316 µM) 66.5% | viability, T/C (second compound 0.1 µM, first compound 1 µM) 82.1% | viability, T/C (second compound 0.316 µM, first compound 0.00316 µM) 95.5% | viability, T/C (second compound 0.316 µM, first compound 0.01 µM) 91.5% | viability, T/C (second compound 0.316 µM, first compound 0.0316 µM) 72.7% | viability, T/C (second compound 0.316 µM, first compound 0.1 µM) 73.9% | viability, T/C (second compound 0.316 µM, first compound 0.316 µM) 75.6% | viability, T/C (second compound 0.316 µM, first compound 1 µM) 83% | viability, T/C (second compound 1 µM, first compound 0.00316 µM) 98.2% | viability, T/C (second compound 1 µM, first compound 0.01 µM) 90.3% | viability, T/C (second compound 1 µM, first compound 0.0316 µM) 77.5% | viability, T/C (second compound 1 µM, first compound 0.1 µM) 70.8% | viability, T/C (second compound 1 µM, first compound 0.316 µM) 81.8% | viability, T/C (second compound 1 µM, first compound 1 µM) 79.1% | viability, T/C (second compound 3.16 µM, first compound 0.00316 µM) 98.9% | viability, T/C (second compound 3.16 µM, first compound 0.01 µM) 91.7% | viability, T/C (second compound 3.16 µM, first compound 0.0316 µM) 84.7% | viability, T/C (second compound 3.16 µM, first compound 0.1 µM) 82.3% | viability, T/C (second compound 3.16 µM, first compound 0.316 µM) 67.7% | viability, T/C (second compound 3.16 µM, first compound 1 µM) 77.3% | viability, T/C (second compound 10 µM, first compound 0.00316 µM) 88.1% | viability, T/C (second compound 10 µM, first compound 0.01 µM) 93.6% | viability, T/C (second compound 10 µM, first compound 0.0316 µM) 91.2% | viability, T/C (second compound 10 µM, first compound 0.1 µM) 74.7% | viability, T/C (second compound 10 µM, first compound 0.316 µM) 88.6% | viability, T/C (second compound 10 µM, first compound 1 µM) 91.8%
> 1000 nM: IC50 (curve of first compound, second compound 0.0316 µM) | IC50 (curve of first compound, second compound 0.1 µM) | IC50 (curve of first compound, second compound 0.316 µM) | IC50 (curve of first compound, second compound 1 µM) | IC50 (curve of first compound, second compound 3.16 µM) | IC50 (curve of first compound, second compound 10 µM)

CNCc1ccc(-c2[nH]c3cc(F)cc4c3c2CCNC4=O)cc1
> 10000 nM: IC50 (curve of compound)
inactive: viability, T/C (compound 0.0316 µM) 108% and 93.3% and 101% | viability, T/C (compound 0.1 µM) 101% and 96% and 102% | viability, T/C (compound 0.316 µM) 102% and 103% and 97.2% | viability, T/C (compound 1 µM) 103% and 91.5% and 93.2% | viability, T/C (compound 3.16 µM) 94.7% and 95.1% and 93.3% | viability, T/C (compound 10 µM) 99.7% and 98% and 92.6%

O=c1[nH]cc(F)c(=O)[nH]1
inactive: viability, T/C (compound 0.0316 µM) 90.7% and 101% and 99.7% | viability, T/C (compound 0.1 µM) 98.1% and 101% and 92.8% | viability, T/C (compound 0.316 µM) 93.2% and 92.1% and 94.4% | viability, T/C (compound 1 µM) 99.2% and 101% and 92% | viability, T/C (compound 3.16 µM) 107% and 102% and 96.4% | viability, T/C (compound 10 µM) 99.7% and 106% and 94.3%
> 10000 nM: IC50 (curve of compound)
